In paper PMC5933747 (PLoS ONE, 2018):
Read-outs that look alike come from different tables or passages of the source.

Columns and labels:
Format in all cases: cell-based
human NaV1.7 = human NaV1.7 (Homo sapiens, UniProt Q15858); assay: IonWorks Quattro (IWQ) electrophysiology, human NaV1.7
human NaV1.4 = human NaV1.4 (Homo sapiens, UniProt P35499); assay: IonWorks Quattro (IWQ) electrophysiology, human NaV1.4
human NaV1.5 = human NaV1.5 (Homo sapiens, UniProt Q14524); assay: IonWorks Quattro (IWQ) electrophysiology, human NaV1.5
[1] = read-out: Glu mutant IWQ IC50 NaV1.7
[2] = read-out: Glu mutant IWQ IC50 NaV1.4
[3] = read-out: Glu mutant IWQ IC50 NaV1.5
[4] = read-out: Ala mutant IWQ IC50 NaV1.7
[5] = read-out: Ala mutant IWQ IC50 NaV1.4
[6] = read-out: Ala mutant IWQ IC50 NaV1.5

Chain of human NaV1.4 (P35499 whole entry): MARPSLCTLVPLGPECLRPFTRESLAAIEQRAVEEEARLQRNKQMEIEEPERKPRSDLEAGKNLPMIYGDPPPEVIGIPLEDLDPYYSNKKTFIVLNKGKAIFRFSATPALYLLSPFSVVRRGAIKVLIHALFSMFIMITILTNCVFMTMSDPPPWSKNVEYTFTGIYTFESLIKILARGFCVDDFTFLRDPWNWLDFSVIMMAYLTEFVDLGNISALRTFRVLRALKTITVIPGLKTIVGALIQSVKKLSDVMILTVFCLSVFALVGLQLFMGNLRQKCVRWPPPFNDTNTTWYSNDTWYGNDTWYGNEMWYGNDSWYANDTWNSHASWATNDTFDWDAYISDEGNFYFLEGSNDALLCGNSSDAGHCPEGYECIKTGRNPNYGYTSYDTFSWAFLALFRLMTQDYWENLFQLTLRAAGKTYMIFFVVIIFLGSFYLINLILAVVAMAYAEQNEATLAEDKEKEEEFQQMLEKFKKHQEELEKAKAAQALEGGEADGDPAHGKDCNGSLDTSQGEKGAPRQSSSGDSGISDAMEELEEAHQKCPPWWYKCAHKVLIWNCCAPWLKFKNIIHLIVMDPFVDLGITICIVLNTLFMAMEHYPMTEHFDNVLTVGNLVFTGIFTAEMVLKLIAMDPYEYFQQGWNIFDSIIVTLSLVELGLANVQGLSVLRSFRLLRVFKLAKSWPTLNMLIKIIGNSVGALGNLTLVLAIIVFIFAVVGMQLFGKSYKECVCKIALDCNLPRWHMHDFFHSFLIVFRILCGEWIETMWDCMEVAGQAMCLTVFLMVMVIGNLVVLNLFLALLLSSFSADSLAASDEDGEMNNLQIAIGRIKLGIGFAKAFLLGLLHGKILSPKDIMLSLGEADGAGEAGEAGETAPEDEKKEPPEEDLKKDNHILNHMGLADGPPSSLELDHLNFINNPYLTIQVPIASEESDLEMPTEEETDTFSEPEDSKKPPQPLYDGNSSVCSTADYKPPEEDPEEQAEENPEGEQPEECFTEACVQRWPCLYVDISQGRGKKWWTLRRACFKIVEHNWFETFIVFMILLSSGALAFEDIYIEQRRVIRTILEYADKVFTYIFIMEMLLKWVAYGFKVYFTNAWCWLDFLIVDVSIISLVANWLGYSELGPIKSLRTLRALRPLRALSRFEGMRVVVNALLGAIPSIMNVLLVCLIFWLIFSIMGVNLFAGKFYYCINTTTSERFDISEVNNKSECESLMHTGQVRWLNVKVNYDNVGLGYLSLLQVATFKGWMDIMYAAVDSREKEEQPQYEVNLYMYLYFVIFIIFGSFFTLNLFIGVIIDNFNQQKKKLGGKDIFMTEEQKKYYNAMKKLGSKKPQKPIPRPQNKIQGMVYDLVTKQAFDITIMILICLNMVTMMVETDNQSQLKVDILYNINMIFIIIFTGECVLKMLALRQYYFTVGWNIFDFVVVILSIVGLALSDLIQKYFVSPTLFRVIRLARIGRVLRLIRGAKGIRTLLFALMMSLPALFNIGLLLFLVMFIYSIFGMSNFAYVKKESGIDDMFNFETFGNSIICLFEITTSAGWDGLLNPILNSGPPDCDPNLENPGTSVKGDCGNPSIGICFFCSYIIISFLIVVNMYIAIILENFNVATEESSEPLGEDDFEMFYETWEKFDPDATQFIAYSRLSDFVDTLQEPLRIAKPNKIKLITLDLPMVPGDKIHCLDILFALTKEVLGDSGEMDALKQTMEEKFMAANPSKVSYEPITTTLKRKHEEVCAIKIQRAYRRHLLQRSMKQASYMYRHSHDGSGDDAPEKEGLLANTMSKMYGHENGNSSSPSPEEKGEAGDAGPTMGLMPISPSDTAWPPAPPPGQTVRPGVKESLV
Chain of human NaV1.7 (Q15858 whole entry): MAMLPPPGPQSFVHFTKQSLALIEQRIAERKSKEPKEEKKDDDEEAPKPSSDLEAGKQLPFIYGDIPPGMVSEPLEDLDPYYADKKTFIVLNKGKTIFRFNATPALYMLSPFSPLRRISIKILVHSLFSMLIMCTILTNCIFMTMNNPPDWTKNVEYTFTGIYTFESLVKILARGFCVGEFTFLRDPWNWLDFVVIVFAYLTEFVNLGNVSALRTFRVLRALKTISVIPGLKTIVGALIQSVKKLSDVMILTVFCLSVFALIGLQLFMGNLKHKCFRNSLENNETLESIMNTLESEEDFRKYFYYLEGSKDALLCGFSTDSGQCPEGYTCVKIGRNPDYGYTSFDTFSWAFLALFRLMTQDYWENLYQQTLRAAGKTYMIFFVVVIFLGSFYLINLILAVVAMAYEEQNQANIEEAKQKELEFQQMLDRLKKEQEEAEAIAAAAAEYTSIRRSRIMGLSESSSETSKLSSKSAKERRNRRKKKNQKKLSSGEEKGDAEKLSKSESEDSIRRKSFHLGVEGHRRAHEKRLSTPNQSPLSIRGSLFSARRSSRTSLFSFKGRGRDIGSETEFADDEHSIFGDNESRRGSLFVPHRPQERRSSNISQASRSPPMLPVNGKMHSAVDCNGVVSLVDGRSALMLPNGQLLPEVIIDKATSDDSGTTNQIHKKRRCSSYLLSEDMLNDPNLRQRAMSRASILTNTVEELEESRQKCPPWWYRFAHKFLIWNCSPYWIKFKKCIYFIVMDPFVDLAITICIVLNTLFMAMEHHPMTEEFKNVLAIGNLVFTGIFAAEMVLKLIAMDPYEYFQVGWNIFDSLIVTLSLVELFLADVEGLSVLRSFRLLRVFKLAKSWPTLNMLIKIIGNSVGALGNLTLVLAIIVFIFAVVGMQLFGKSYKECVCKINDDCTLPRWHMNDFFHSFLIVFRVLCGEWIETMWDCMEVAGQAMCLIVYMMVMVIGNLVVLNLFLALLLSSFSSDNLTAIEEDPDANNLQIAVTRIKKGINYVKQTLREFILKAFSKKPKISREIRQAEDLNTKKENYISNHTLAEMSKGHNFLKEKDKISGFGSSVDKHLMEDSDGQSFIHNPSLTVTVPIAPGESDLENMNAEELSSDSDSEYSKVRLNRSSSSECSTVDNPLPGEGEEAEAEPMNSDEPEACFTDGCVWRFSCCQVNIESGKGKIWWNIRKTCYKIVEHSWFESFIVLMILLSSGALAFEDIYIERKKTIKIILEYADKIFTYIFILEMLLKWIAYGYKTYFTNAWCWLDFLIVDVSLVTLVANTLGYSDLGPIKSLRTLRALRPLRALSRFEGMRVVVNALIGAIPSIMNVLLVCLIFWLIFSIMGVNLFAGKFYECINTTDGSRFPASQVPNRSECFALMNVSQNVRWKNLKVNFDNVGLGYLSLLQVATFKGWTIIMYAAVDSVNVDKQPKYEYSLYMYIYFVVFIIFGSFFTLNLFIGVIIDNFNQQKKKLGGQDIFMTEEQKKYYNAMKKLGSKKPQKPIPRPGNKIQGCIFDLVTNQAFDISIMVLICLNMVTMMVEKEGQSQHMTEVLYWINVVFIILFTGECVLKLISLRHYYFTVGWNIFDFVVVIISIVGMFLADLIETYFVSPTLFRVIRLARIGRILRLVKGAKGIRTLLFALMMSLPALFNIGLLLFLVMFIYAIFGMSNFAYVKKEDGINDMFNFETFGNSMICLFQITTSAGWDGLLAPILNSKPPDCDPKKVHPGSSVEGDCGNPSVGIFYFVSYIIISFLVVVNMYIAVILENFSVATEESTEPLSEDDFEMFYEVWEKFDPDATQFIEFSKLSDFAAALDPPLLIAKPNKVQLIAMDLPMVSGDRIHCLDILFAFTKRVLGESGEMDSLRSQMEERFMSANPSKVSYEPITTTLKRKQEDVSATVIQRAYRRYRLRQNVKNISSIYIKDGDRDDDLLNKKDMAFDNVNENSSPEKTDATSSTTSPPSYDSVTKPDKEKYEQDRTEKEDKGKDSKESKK

Compound	IC50 (human NaV1.7; [1])	IC50 (human NaV1.4; [2])	IC50 (human NaV1.5; [3])	IC50 (human NaV1.7; [4])	IC50 (human NaV1.4; [5])	IC50 (human NaV1.5; [6])
CC[C@H](C)[C@H](NC(=O)[C@@H](NC(=O)[C@H](CCCCN)NC(=O)[C@H](CCCNC(=N)N)NC(=O)[C@@H]1CSSC[C@@H]2NC(=O)[C@H](C)NC(=O)[C@H](CCCNC(=N)N)NC(=O)[C@H](CCCCN)NC(=O)[C@H](CO)NC(=O)[C@H](CCC(=O)O)NC(=O)[C@@H]3CSSC[C@H](NC(=O)[C@H](CCCNC(=N)N)NC(=O)[C@H](CC(C)C)NC(=O)CNC(=O)[C@H](CCC(=O)O)NC(=O)[C@H](CSSC[C@H](NC(=O)[C@@H](N)Cc4ccc(O)cc4)C(=O)N[C@@H](CCC(N)=O)C(=O)N[C@@H](CCCCN)C(=O)N[C@@H](Cc4c[nH]c5ccccc45)C(=O)N[C@@H](CCSC)C(=O)N[C@@H](Cc4c[nH]c5ccccc45)C(=O)N[C@@H]([C@@H](C)O)C(=O)N3)NC2=O)C(=O)N[C@@H](CCCCN)C(=O)N[C@@H](CC(C)C)C(=O)N[C@@H](Cc2c[nH]c3ccccc23)C(=O)N1)[C@@H](C)CC)C(N)=O [D10 Glu mutant]	1300 nM	8800 nM	> 10000 nM			
CC[C@H](C)[C@H](NC(=O)[C@@H](NC(=O)[C@H](CCCCN)NC(=O)[C@H](CCCNC(=N)N)NC(=O)[C@@H]1CSSC[C@@H]2NC(=O)[C@H](C)NC(=O)[C@H](CCCNC(=N)N)NC(=O)[C@H](CCCCN)NC(=O)[C@H](CO)NC(=O)[C@H](CC(=O)O)NC(=O)[C@@H]3CSSC[C@H](NC(=O)[C@H](CCCNC(=N)N)NC(=O)[C@H](CC(C)C)NC(=O)[C@H](CCC(=O)O)NC(=O)[C@H](CCC(=O)O)NC(=O)[C@H](CSSC[C@H](NC(=O)[C@@H](N)Cc4ccc(O)cc4)C(=O)N[C@@H](CCC(N)=O)C(=O)N[C@@H](CCCCN)C(=O)N[C@@H](Cc4c[nH]c5ccccc45)C(=O)N[C@@H](CCSC)C(=O)N[C@@H](Cc4c[nH]c5ccccc45)C(=O)N[C@@H]([C@@H](C)O)C(=O)N3)NC2=O)C(=O)N[C@@H](CCCCN)C(=O)N[C@@H](CC(C)C)C(=O)N[C@@H](Cc2c[nH]c3ccccc23)C(=O)N1)[C@@H](C)CC)C(N)=O [G18 Glu mutant]	165 nM	1220 nM	> 10000 nM			
CC[C@H](C)[C@H](NC(=O)[C@@H](NC(=O)[C@H](CCCCN)NC(=O)[C@H](CCCNC(=N)N)NC(=O)[C@@H]1CSSC[C@@H]2NC(=O)[C@H](C)NC(=O)[C@H](CCCNC(=N)N)NC(=O)[C@H](CCCCN)NC(=O)[C@H](CO)NC(=O)[C@H](CC(=O)O)NC(=O)[C@@H]3CSSC[C@H](NC(=O)[C@H](CCCNC(=N)N)NC(=O)[C@H](CC(C)C)NC(=O)CNC(=O)[C@H](CCC(=O)O)NC(=O)[C@H](CSSC[C@H](NC(=O)[C@@H](N)Cc4ccc(O)cc4)C(=O)N[C@@H](CCC(N)=O)C(=O)N[C@@H](C)C(=O)N[C@@H](Cc4c[nH]c5ccccc45)C(=O)N[C@@H](CCSC)C(=O)N[C@@H](Cc4c[nH]c5ccccc45)C(=O)N[C@@H]([C@@H](C)O)C(=O)N3)NC2=O)C(=O)N[C@@H](CCCCN)C(=O)N[C@@H](CC(C)C)C(=O)N[C@@H](Cc2c[nH]c3ccccc23)C(=O)N1)[C@@H](C)CC)C(N)=O [K4 Ala mutant]				417 nM	3260 nM	> 10000 nM
CC[C@H](C)[C@H](NC(=O)[C@@H](NC(=O)[C@H](CCCCN)NC(=O)[C@H](CCCNC(=N)N)NC(=O)[C@@H]1CSSC[C@@H]2NC(=O)[C@H](C)NC(=O)[C@H](CCCNC(=N)N)NC(=O)[C@H](CCCCN)NC(=O)[C@H](CO)NC(=O)[C@H](CC(=O)O)NC(=O)[C@@H]3CSSC[C@H](NC(=O)[C@H](CCCNC(=N)N)NC(=O)[C@H](CC(C)C)NC(=O)CNC(=O)[C@H](CCC(=O)O)NC(=O)[C@H](CSSC[C@H](NC(=O)[C@@H](N)Cc4ccc(O)cc4)C(=O)N[C@@H](CCC(N)=O)C(=O)N[C@@H](CCC(=O)O)C(=O)N[C@@H](Cc4c[nH]c5ccccc45)C(=O)N[C@@H](CCSC)C(=O)N[C@@H](Cc4c[nH]c5ccccc45)C(=O)N[C@@H]([C@@H](C)O)C(=O)N3)NC2=O)C(=O)N[C@@H](CCCCN)C(=O)N[C@@H](CC(C)C)C(=O)N[C@@H](Cc2c[nH]c3ccccc23)C(=O)N1)[C@@H](C)CC)C(N)=O [K4 Glu mutant]	106 nM	967 nM	> 10000 nM			
CC[C@H](C)[C@H](NC(=O)[C@@H](NC(=O)[C@H](CCCCN)NC(=O)[C@H](CCCNC(=N)N)NC(=O)[C@@H]1CSSC[C@@H]2NC(=O)[C@H](C)NC(=O)[C@H](CCCNC(=N)N)NC(=O)[C@H](CCC(=O)O)NC(=O)[C@H](CO)NC(=O)[C@H](CC(=O)O)NC(=O)[C@@H]3CSSC[C@H](NC(=O)[C@H](CCCNC(=N)N)NC(=O)[C@H](CC(C)C)NC(=O)CNC(=O)[C@H](CCC(=O)O)NC(=O)[C@H](CSSC[C@H](NC(=O)[C@@H](N)Cc4ccc(O)cc4)C(=O)N[C@@H](CCC(N)=O)C(=O)N[C@@H](CCCCN)C(=O)N[C@@H](Cc4c[nH]c5ccccc45)C(=O)N[C@@H](CCSC)C(=O)N[C@@H](Cc4c[nH]c5ccccc45)C(=O)N[C@@H]([C@@H](C)O)C(=O)N3)NC2=O)C(=O)N[C@@H](CCCCN)C(=O)N[C@@H](CC(C)C)C(=O)N[C@@H](Cc2c[nH]c3ccccc23)C(=O)N1)[C@@H](C)CC)C(N)=O [K12 Glu mutant]	755 nM	> 10000 nM	> 10000 nM			
CC[C@H](C)[C@H](NC(=O)[C@@H](NC(=O)[C@H](CCCCN)NC(=O)[C@H](CCCNC(=N)N)NC(=O)[C@@H]1CSSC[C@@H]2NC(=O)[C@H](C)NC(=O)[C@H](CCCNC(=N)N)NC(=O)[C@H](CCCCN)NC(=O)[C@H](CO)NC(=O)[C@H](CC(=O)O)NC(=O)[C@@H]3CSSC[C@H](NC(=O)[C@H](CCCNC(=N)N)NC(=O)[C@H](CC(C)C)NC(=O)CNC(=O)[C@H](CCC(=O)O)NC(=O)[C@H](CSSC[C@H](NC(=O)[C@@H](N)Cc4ccc(O)cc4)C(=O)N[C@@H](CCC(N)=O)C(=O)N[C@@H](CCCCN)C(=O)N[C@@H](Cc4c[nH]c5ccccc45)C(=O)N[C@@H](CCSC)C(=O)N[C@@H](Cc4c[nH]c5ccccc45)C(=O)N[C@@H]([C@@H](C)O)C(=O)N3)NC2=O)C(=O)N[C@@H](CCC(=O)O)C(=O)N[C@@H](CC(C)C)C(=O)N[C@@H](Cc2c[nH]c3ccccc23)C(=O)N1)[C@@H](C)CC)C(N)=O [K22 Glu mutant]	662 nM	> 10000 nM	> 10000 nM			
CC[C@H](C)[C@H](NC(=O)[C@@H](NC(=O)[C@H](C)NC(=O)[C@H](CCCNC(=N)N)NC(=O)[C@@H]1CSSC[C@@H]2NC(=O)[C@H](C)NC(=O)[C@H](CCCNC(=N)N)NC(=O)[C@H](CCCCN)NC(=O)[C@H](CO)NC(=O)[C@H](CC(=O)O)NC(=O)[C@@H]3CSSC[C@H](NC(=O)[C@H](CCCNC(=N)N)NC(=O)[C@H](CC(C)C)NC(=O)CNC(=O)[C@H](CCC(=O)O)NC(=O)[C@H](CSSC[C@H](NC(=O)[C@@H](N)Cc4ccc(O)cc4)C(=O)N[C@@H](CCC(N)=O)C(=O)N[C@@H](CCCCN)C(=O)N[C@@H](Cc4c[nH]c5ccccc45)C(=O)N[C@@H](CCSC)C(=O)N[C@@H](Cc4c[nH]c5ccccc45)C(=O)N[C@@H]([C@@H](C)O)C(=O)N3)NC2=O)C(=O)N[C@@H](CCCCN)C(=O)N[C@@H](CC(C)C)C(=O)N[C@@H](Cc2c[nH]c3ccccc23)C(=O)N1)[C@@H](C)CC)C(N)=O [K27 Ala mutant]				374 nM	2320 nM	> 10000 nM
CC[C@H](C)[C@H](NC(=O)[C@@H](NC(=O)[C@H](CCC(=O)O)NC(=O)[C@H](CCCNC(=N)N)NC(=O)[C@@H]1CSSC[C@@H]2NC(=O)[C@H](C)NC(=O)[C@H](CCCNC(=N)N)NC(=O)[C@H](CCCCN)NC(=O)[C@H](CO)NC(=O)[C@H](CC(=O)O)NC(=O)[C@@H]3CSSC[C@H](NC(=O)[C@H](CCCNC(=N)N)NC(=O)[C@H](CC(C)C)NC(=O)CNC(=O)[C@H](CCC(=O)O)NC(=O)[C@H](CSSC[C@H](NC(=O)[C@@H](N)Cc4ccc(O)cc4)C(=O)N[C@@H](CCC(N)=O)C(=O)N[C@@H](CCCCN)C(=O)N[C@@H](Cc4c[nH]c5ccccc45)C(=O)N[C@@H](CCSC)C(=O)N[C@@H](Cc4c[nH]c5ccccc45)C(=O)N[C@@H]([C@@H](C)O)C(=O)N3)NC2=O)C(=O)N[C@@H](CCCCN)C(=O)N[C@@H](CC(C)C)C(=O)N[C@@H](Cc2c[nH]c3ccccc23)C(=O)N1)[C@@H](C)CC)C(N)=O [K27 Glu mutant]	748 nM	> 10000 nM	> 10000 nM			
CC[C@H](C)[C@H](NC(=O)[C@@H](NC(=O)[C@H](CCCCN)NC(=O)[C@H](CCCNC(=N)N)NC(=O)[C@@H]1CSSC[C@@H]2NC(=O)[C@H](C)NC(=O)[C@H](CCCNC(=N)N)NC(=O)[C@H](CCCCN)NC(=O)[C@H](CO)NC(=O)[C@H](CC(=O)O)NC(=O)[C@@H]3CSSC[C@H](NC(=O)[C@H](CCCNC(=N)N)NC(=O)[C@H](C)NC(=O)CNC(=O)[C@H](CCC(=O)O)NC(=O)[C@H](CSSC[C@H](NC(=O)[C@@H](N)Cc4ccc(O)cc4)C(=O)N[C@@H](CCC(N)=O)C(=O)N[C@@H](CCCCN)C(=O)N[C@@H](Cc4c[nH]c5ccccc45)C(=O)N[C@@H](CCSC)C(=O)N[C@@H](Cc4c[nH]c5ccccc45)C(=O)N[C@@H]([C@@H](C)O)C(=O)N3)NC2=O)C(=O)N[C@@H](CCCCN)C(=O)N[C@@H](CC(C)C)C(=O)N[C@@H](Cc2c[nH]c3ccccc23)C(=O)N1)[C@@H](C)CC)C(N)=O [L19 Ala mutant]				2810 nM	> 10000 nM	> 10000 nM
CC[C@H](C)[C@H](NC(=O)[C@@H](NC(=O)[C@H](CCCCN)NC(=O)[C@H](CCCNC(=N)N)NC(=O)[C@@H]1CSSC[C@@H]2NC(=O)[C@H](C)NC(=O)[C@H](CCCNC(=N)N)NC(=O)[C@H](CCCCN)NC(=O)[C@H](CO)NC(=O)[C@H](CC(=O)O)NC(=O)[C@@H]3CSSC[C@H](NC(=O)[C@H](CCCNC(=N)N)NC(=O)[C@H](CCC(=O)O)NC(=O)CNC(=O)[C@H](CCC(=O)O)NC(=O)[C@H](CSSC[C@H](NC(=O)[C@@H](N)Cc4ccc(O)cc4)C(=O)N[C@@H](CCC(N)=O)C(=O)N[C@@H](CCCCN)C(=O)N[C@@H](Cc4c[nH]c5ccccc45)C(=O)N[C@@H](CCSC)C(=O)N[C@@H](Cc4c[nH]c5ccccc45)C(=O)N[C@@H]([C@@H](C)O)C(=O)N3)NC2=O)C(=O)N[C@@H](CCCCN)C(=O)N[C@@H](CC(C)C)C(=O)N[C@@H](Cc2c[nH]c3ccccc23)C(=O)N1)[C@@H](C)CC)C(N)=O [L19 Glu mutant]	> 10000 nM	> 10000 nM	> 10000 nM			
